Reference: US8895610B1, “Platinum (IV) compounds targeting zinc finger domains” (priority 2007, dated 2014)
“And” between values parts separate entries of the source, which are not always exact repeats. Equal entries are not always repeated. “Also recorded” adds a separate entry of the source.

Tests used:
Petaluma strain of FIV = test: Plasma viremia by reverse transcription TaqMan PCR in FIV-infected cats; format: in vivo, domestic cat; conditions: for Plasma Viremia: cats BR, CF
Description: Currently available antiretrovirals require daily dosing, often in combination therapy. Two 12^+-year old specific-pathogen-free domestic female cats infected >5 years with the Petaluma strain of FIV were used in this study. The animals were housed individually in a climatized animal facility in accordance with standards, had ad libitum access to fresh water and food, and were sedated with Tiletamine/Zolazepam intramuscularly prior to any procedure. The cats weighed from 3-5 kg each. Three weeks before initiation of the treatment and at scheduled times, samples were collected for hematological and virological analyses. The cats received 9 intravenous doses of 3 mg/kg FX101 over 4.5 weeks (2× weekly).
Viral RNA extracted from plasma using the QIAmp viral RNA kit (QIAGEN), was reverse transcribed and amplified by reverse transcription TaqMan PCR. Reverse transcription and amplification conditions, and minimum detection limits of the assay (100-200 copies/mL plasma) are described elsewhere (Pistello, 2005). This measure represents viral presence in circulation, reflecting potential infectivity and productive synthesis of viral particles.
0.1664 g FX101 was dissolved into 30 mL 15% DMSO/PBS and stirred overnight. This solution was sterile-filtered using a 20-mL syringe fitted with a […] Sarstedt filter. Each dose was administered under anesthesia, a 1.5 mL venous injection using a 2.5 mL syringe fitted with a 22G 1¼-in. needle (latex free). Feline BR weighed 3.2 kg at the start of the experiment and CF weighed 2.8 kg. Each received 8.3 mg drug with each dose, so dosages were 2.6 mg/kg for BR and 3.0 mg/kg for CF.
Table 8 illustrates measures of plasma viremia from the two test cats, “BR” and […] relative to the treatment period, receiving intravenous injections of FX101 twice weekly over four weeks. Each blood sample was taken immediately prior to drug injection for the scheduled dosing, August 23-September 30. This provided two pretreatment samples as baseline measures, 3 samples during treatment, and two post-treatment samples; note the addition of an unscheduled sample October 20. […] Following the last dosage, the first post-treatment results were ambiguous, with one cat experiencing a strong rebound and the other remaining below detection. This difference may be attributable to a uterine infection experienced by cat “BR” at this time—a historically frequent occurrence for this cat. It is well known that lipopolysaccharides (LPS) induce lentiviral replication, and this may therefore be related.

[1] = tested on: HIV-Infected Human Monocyte-Derived Macrophages; test: Reverse transcription rates in HIV-infected monocyte-derived macrophages; format: cell-based; conditions: 1 to 10 uM; vs untreated and mock-infected MDM
Method: Primary human monocyte-derived macrophages (MDM) were prepared by culturing elutriated monocytes in RPMI-1640 medium, supplemented with 10% fetal bovine serum for 5 to 7 days on ultra-low attachment plates. MDMs were detached from the plates and plated onto tissue culture dishes or microscope culture chambers. MDMs in 6-well plates were infected with WT pNL(AD8) virus stocks and 2×10^6 reverse transcriptase cpm/well. Various incubated concentrations of platinum(IV) compound ranging from 1 to 10 uM were compared with untreated (no drug) and mock-infected MDM reverse transcription rates (counts per minute/microliter). Medium in the MDM cultures was changed every two days and an aliquot was reserved for reverse transcriptase (RT) activity at each time point (Gousset, 2008). […] This activity parallels that observed by Mark-Danieli et al. (2005) by certain zinc finger mutations of the nucleocapsid protein; other investigators have reported decreases or no changes in transcription rates with various mutations (Ramboarina, 2004; Houzet, 2008). […] Increasing the efficiency of reverse transcription initiation is detrimental to viral replication (Thomas and Gorelick, 2008). One role of nucleocapsid proteins is regulation of the transcription cadence in virally-infected cells.

MMP-2 = test: Feline blood serum immunofluorescent bead analysis: MMP-2; format: in vivo, cat; conditions: for MMP-2, relative blood serum measure: cats BR, CF
Method: (§1) Test sera samples from select felines were analyzed using the Rules-Based Medicine (Austin, Tex.) human multi-analyte for 90 measures from a single sample of less than 0.5 mL. The assay uses immunofluorescent beads to simultaneously measure antibody recognition to individually identifiable colored beads, each conjugated with a specific antibody, within a single well plate. Blood samples were drawn preceding (pretreatment) and following (post treatment) one-month FX101 treatment (from felines in Example 6), and are compared with two uninfected control felines. Human cross-reactive antibodies are commonly used for felines, and are relative rather than quantitative measures. Reductions in TNF-alpha and MMP-2 are evident in treated cats; TIMP-1 (Tissue Inhibitor of Metalloproteinases) is not associated with the downregulation of MMP-2. Both MMP-2 and MMP-9, as well as MCP-1, are considered important contributors to the penetration of virally-infected cells across the BBB (Webster, 2006). Additional comments follow the table.

M2 strain of FIV = test: Second FIV cat study, plasma viremia (five treated, three control cats); format: in vivo, domestic cat; conditions: after 6 intravenous doses of 3 mg/kg over four weeks, controls showed active viremia
Description: Eight specific-pathogen-free domestic female cats infected >2 years with the M2 strain of FIV were used in another study. Cats were housed individually in a climatized animal facility in accordance with standards, had ad libitum access to fresh water and food, and were sedated with Tiletamine/Zolazepam intramuscularly prior to any procedure. The animals were divided into two groups, with five receiving FX101 in 10% DMSO/saline (treated) and three receiving only 10% DMSO/saline (control). Prior to initiation of the treatment and at scheduled times, samples were collected for hematological and virological analyses. The cats received 6 intravenous doses of 3 mg/kg FX101 over four weeks. Cats were matched by birthdates and infection dates with similar viral blood plasma viremia levels at the onset of the study. […] Current antretrovirals are required on a daily basis; the efficacy of six doses of treatment over four weeks supports a distinct mechanism from the nucleotide/non-nucleotide reverse transcriptase, protease and infectivity inhibitors. Efficacy extends across diverse strains of FIV, in agreement with alterations by platinum(IV) compounds to the zinc-binding nucleocapsid domain being therapeutically targeted. It is anticipated that cotherapies targeting multiple mechanisms may eventually provide viral clearance for an infected host.

[2] = biological target: synthetic peptide F2, the carboxy-terminal zinc finger domain of HIV-1 (Human immunodeficiency virus type 1 group M subtype B, UniProt P12493); conditions: 1:1 metal:F2, 10^−4 mole/liter in PBS
Method: The synthetic peptide F2, the carboxy-terminal zinc finger domain of HIV-1, was examined by ultraviolet-visible absorption spectroscopy for its interaction with various metals. […] Stock solutions of 2×10^−4 mole/liter F2 peptide were prepared in phosphate buffered saline (PBS) without calcium or magnesium; known stock concentrations of Fe(II), Co(II), Zn(II) and Pt(IV) metals were also prepared in PBS. One to one ratios of F2 peptide with each metal were individually combined at room temperature with final concentrations of 10^−4 mole/liter, and spectra were collected at various times using a Nanodrop Spectrophotometer (Thermo Scientific, Inc.) having a xenon flash lamp and requiring <2 microliters of sample deposited directly onto an optical lense.

Calcitonin = test: Feline blood serum immunofluorescent bead analysis: Calcitonin; format: in vivo, cat; conditions: cats BR, CF
Method: as §1

[3] = post treatment (one-month FX101 treatment)

Question: For `[NH2][Pt]([NH2])([Cl])([Cl])([Cl])[N+](=O)[O-]` [FX101, nitrotrichlorodiamminoPt(IV)], which “plasma viremia after treatment (in words)” value (Petaluma strain of FIV; 4 weeks to 9 months past the final dosage, no additional therapies) is on record?
Answer: Its value is “significantly lower viremia as compared with baseline measures; also recorded: undetectable plasma viremia”.

Question: And the “Plasma Viremia” value (Petaluma strain of FIV; Aug. 2, 2007 pretreatment)?
Answer: Its value is 2582 Viral RNA Copies/mL Plasma and 4282 Viral RNA Copies/mL Plasma.

Question: What about the “Plasma Viremia” value (Petaluma strain of FIV; Aug. 23, 2007 start of treatment period, blood collected prior to dosing) of the same compound?
Answer: Its value is 8841 Viral RNA Copies/mL Plasma and 6974 Viral RNA Copies/mL Plasma.

Question: And the “Plasma Viremia” value (Petaluma strain of FIV; Aug. 30, 2007 treatment period, i.v. twice weekly)?
Answer: The value was 1300 Viral RNA Copies/mL Plasma and 1249 Viral RNA Copies/mL Plasma.

Question: And the “Plasma Viremia” value (Petaluma strain of FIV; Feb. 1, 2006 pretreatment)?
Answer: The value was 6557 Viral RNA Copies/mL Plasma and 3864 Viral RNA Copies/mL Plasma.

Question: What about the “Plasma Viremia” value (Petaluma strain of FIV; Jun. 12, 2008 (+38 wk) post treatment) of the same compound?
Answer: Its value is <200 Viral RNA Copies/mL Plasma.

Question: What about the “Plasma Viremia” value (Petaluma strain of FIV; Mar. 1, 2006 pretreatment) of the same compound?
Answer: Its value is 3072 Viral RNA Copies/mL Plasma and 2819 Viral RNA Copies/mL Plasma.

Question: And the “Plasma Viremia” value (Petaluma strain of FIV; Mar. 27, 2008 (+27 wk) post treatment)?
Answer: Its value is <200 Viral RNA Copies/mL Plasma.

Question: And the “Plasma Viremia” value (Petaluma strain of FIV; Oct. 20, 2007 (+4 wk) post treatment)?
Answer: The value was 898 Viral RNA Copies/mL Plasma and 1057 Viral RNA Copies/mL Plasma.

Question: And the “Plasma Viremia” value (Petaluma strain of FIV; Sep. 4, 2007 treatment period, i.v. twice weekly)?
Answer: The value was <100 Viral RNA Copies/mL Plasma.

Question: What about the “Plasma Viremia” value (Petaluma strain of FIV; Sep. 20, 2007 treatment period, i.v. twice weekly) of the same compound?
Answer: Its value is <100 Viral RNA Copies/mL Plasma.

Question: What about the “plasma viremia during treatment (in words)” value (Petaluma strain of FIV; both cats, over two weeks of twice weekly i.v. injections) of the same compound?
Answer: Its value is “significant reduction in plasma viremia”.

Question: What about the reverse transcription rate [1] of the same compound?
Answer: The reverse transcription rate was “do not inhibit reverse transcription in this system, but rather increase this rate”.

Question: And the “MMP-2, relative blood serum measure” value (MMP-2; [3])?
Answer: The value was 2070 ng/mL and 2120 ng/mL.

Question: And the “MMP-2 in serum of treated cats (in words)” value (MMP-2; post vs pre one-month treatment)?
Answer: The value was “Reductions”.

Question: What about the “MMP-2, relative blood serum measure” value (MMP-2; pretreatment) of the same compound?
Answer: The value was 3000 ng/mL and 3150 ng/mL.

Question: What about the plasma viremia levels (M2 strain of FIV) of the same compound?
Answer: The plasma viremia levels was “below the detection limit of the assay”.

Question: What about the “comparative absorption at 250 nm of metal with F2 peptide” value [2] of the same compound?
Answer: The value was 0.118.

Question: And the “Calcitonin, relative blood serum measure” value (Calcitonin; [3])?
Answer: The value was 2.9 pg/mL.

Question: And the “Calcitonin, relative blood serum measure” value (Calcitonin; pretreatment)?
Answer: The value was 7.6 pg/mL and 11 pg/mL.
